This note sets out measurements from the Bradley open melting point set (2014).

“And” between values parts separate entries of the source, which are not always exact repeats. Equal entries are not always repeated.

What is called melting point is the temperature of the solid-liquid transition.

On to `NCc1ccccn1` [2-(aminomethyl)pyridine], for which the melting point is -20 °C.
In the case of `CCCC(O)(CCC)C1(C)CCC(C(=O)O)C(C)(C)O1` (stereo unspecified), the melting point was 112 °C.
In turn, `COc1cccc(N)c1` [m-anisidine] showed a melting point of 0 °C.
Next, `N#Cc1cccc(O)c1` [3-hydroxybenzonitrile]: 80 °C.
The compound `C=CCCC(=O)O` [4-pentenoic acid] registered a melting point of -22 °C.
Next, `CC(=O)O` [Acetic acid]: 16.7 °C; `CCN1C(=O)C=CC1=O` [N-ethylmaleimide]: 45 °C; `Nc1cc(-c2ccccc2)c(O)c(-c2ccccc2)c1` [5'-Amino-1,1':3',1''-terphenyl-2'-ol]: 149 °C.
The compound `Cc1ccc(C)c(Br)c1` [2-bromo-p-xylene] displayed a melting point of 10 °C.
Next, `COC(=O)[C@H](C)O` [methyl (S)-lactate]: -44 °C; `N[C@@H](Cc1cc(I)c(Oc2cc(I)c(O)c(I)c2)c(I)c1)C(=O)O` [Levothyroxine]: 236 °C; `CCOC(=O)/C(=N\Nc1ccccc1)C(=O)C(F)(F)F`: 81 °C.
On to `CC(=O)c1ccc(I)cc1` [1-(4-Iodophenyl)ethanone], for which the melting point was 84.8 °C and 85.3 °C.
The result for `COc1cc(N)c(Cl)cc1C(=O)NC1CCN(Cc2ccccc2)CC1` [clebopride] reads 194 °C; that for `O=C1OC2(c3ccc(O)cc3Oc3cc(O)ccc32)c2ccccc21` [fluorescein], 320 °C; that for `COC1=C(OC)C(=O)C(C)=CC1=O` [2,3-dimethoxy-5-methyl-1,4-benzoquinone], 59 °C.
In turn, `O=Cc1cccc(I)c1` [m-iodobenzaldehyde] came in with a melting point of 58 °C.
Take `CC(C)(C)c1ccc(C2CCC3(CC2)Cc2ccc(O)cc2C3)cc1` (stereo unspecified): the melting point is 131 °C.
The result for `CC(=O)Nc1ccc(Cl)cc1` [4'-chloroacetanilide] reads 179 °C.
Next, `c1ccc(C(CCN2CCCCC2)c2ccccc2)cc1` [fenpiprane]: 41 °C.
Next, `O=C(O)c1ccccc1` [Benzoic acid]: 122 °C; `C=Cc1ccccc1O` [o-vinyl_phenol]: 29 °C.
`ClCCCCCl` [1,4-dichlorobutane] came in with a melting point of -37 °C.
On to `CCOC(=O)CCl` [ethyl chloroacetate], for which the melting point was -26 °C.
Next, `N#CCc1cccc(C#N)c1` [m-cyano_phenylacetonitrile]: 87 °C.
Turning to `CC(=O)Oc1ccc(CC#N)cc1` [p-acetoxy_phenylacetonitrile], the melting point worked out at 50 °C.
Next, `C=C(C)[C@@H]1CCC2=CC(=O)C[C@@H](C)[C@]2(C)C1`: 36.9 °C.
On to `Cc1ccc(C)c(-c2cc(C)ccc2C)c1` [2,2',5,5'-tetramethylbiphenyl], for which the melting point worked out at 50 °C.
Next, `CNC[C@H](O)[C@@H](O)[C@H](O)[C@H](O)CO` [N-methyl-D-glucamine]: 130 °C.
Consider `CC(=O)N[C@@H](CS)C(=O)O` [N-acetyl-l-cysteine], for which the melting point stood at 110 °C.
Take `CC12CCC(C1(C)C)C(CCCc1ccccc1)(C1(CCCc3ccccc3)C(=O)C3(C)CCC1C3(C)C)C2=O` (stereo unspecified): the melting point was 162 °C.
As to `O=[N+]([O-])c1ccc(/N=N/c2c(O)ccc3ccccc23)cc1` [1-(4-nitrophenylazo)-2-naphthol], the melting point was 250 °C.
`O=S(=O)(Cl)Cc1ccc(C(F)(F)F)cc1` [4-trifluoromethyl-alpha-toluenesulfonyl chloride] returned a melting point of 104 °C.
Next, `OC/C=C\CO` [cis-2-butene-1,4-diol]: 7 °C.
Next, `CC(=O)c1cc(O)ccc1O` [2',5'-dihydroxyacetophenone]: 206 °C.
Compound `CC(=O)C(C)=NO` [2,3-butanedione monoxime] displayed a melting point of 76 °C.
Next, `CC(=O)Oc1ccc(C(N)=O)cc1` [p-acetoxybenzamide]: 179 °C; `Clc1c(Cl)c(Cl)c(Cl)c(Cl)c1Cl` [Hexachlorobenzene]: 228 °C.
`CCCCCCCCCCCCCC(N)=O` [N-tetradecanamide] returned a melting point of 106 °C.
The result for `OB(O)c1c(C(F)(F)F)cccc1C(F)(F)F` [2,6-bis(trifluoromethyl)benzeneboronic acid] reads 150 °C.
Next, `O=C(O)C(O)c1cc(F)cc(F)c1` (stereo unspecified) [3,5-difluoromandelic acid]: 136 °C; `CC(C)(C)OC(=O)N[C@@H](Cc1cccs1)C(=O)O` [N-boc-3-(2-thienyl)-L-alanine]: 74 °C; `OB(O)c1ccnc(Cl)c1Cl` [2,3-dichloropyridine-4-boronic acid]: 137 °C.
`Clc1ccc(Cl)cc1` [p-dichlorobenzene]: the melting point is 53 °C.
`CC1(C)C2CCC1(C)C(O)/C2=C\CC(=O)O` (stereo unspecified) had a melting point of 52 °C.
In the case of `CC[C@H]1OC(=O)[C@H](C)[C@@H](O[C@H]2C[C@@](C)(OC)[C@@H](O)[C@H](C)O2)[C@H](C)[C@@H](O[C@@H]2O[C@H](C)C[C@H](N(C)C)[C@H]2O)[C@](C)(O)C[C@@H](C)C(=O)[C@H](C)[C@@H](O)[C@]1(C)O` [erythromycin], the melting point worked out at 191 °C.
The compound `O=C=Nc1cccc2ccccc12` [1-naphthyl isocyanate] registered a melting point of 4 °C.
As to `O=C(O)/C=C/c1ccccc1` [trans-cinnamic_acid], the melting point worked out at 133 °C.
In turn, `CC12CCC(/C(=C\Nc3ccccc3C(=O)O)C1=O)C2(C)C` (stereo unspecified) had a melting point of 112 °C.
The result for `O=C1Nc2c(Br)cccc2C1=O` [7-bromoisatin] reads 197 °C; that for `OCc1ccc(Cl)cc1` [(4-Chlorophenyl)methanol], 71 °C; that for `Cc1n[nH]c(=O)[nH]c1=O` [6-azathymine], 213 °C.
The result for `CC[C@@H]1OC(=O)[C@H](C)C(=O)[C@H](C)[C@@H](O[C@@H]2O[C@H](C)C[C@H](N(C)C)[C@H]2O)[C@](C)(OC)C[C@@H](C)C(=O)[C@H](C)[C@H]2N(CCCCn3cnc(-c4cccnc4)c3)C(=O)O[C@@]12C` [Telithromycin] reads 182 °C; that for `OB(O)c1cc(Cl)cnc1Cl` [2,5-dichloropyridine-3-boronic acid], 154 °C.
The result for `O=C(O)c1cc2ccccc2o1` [benzo[b]furan-2-carboxylic acid] reads 194 °C; that for `NC(=O)N1c2ccccc2C=Cc2ccccc21` [carbamazepine], 190 °C; that for `O=C(O)c1ccc(-c2ccccc2)cc1` [p-phenylbenzoic_acid], 227 °C.
For the compound `O=[N+]([O-])c1ncccc1Br` [3-bromo-2-nitropyridine], the melting point turned out to be 104 °C.
Next, `O=C1CCC(N2C(=O)c3ccccc3C2=O)C(=O)N1` (stereo unspecified) [Thalidomide]: 275 °C; `CCc1cccc(C)c1` [3-ethyltoluene]: -96 °C.
Turning to `CCc1ccc(OCC(=O)O)cc1` [4-ethylphenoxyacetic acid], the melting point came to 93 °C.
The result for `O=C(O)Cc1cccc(I)c1` [3-iodophenylacetic acid] reads 130 °C; that for `Cc1cc(C=O)c(C)n1-c1ccccn1` [OSM-S-44], 62.5 °C.
`O=C(NC/1=N/C(=O)c2ncn(c2N\1)COCCO)C` [N-Acetylacyclovir] showed a melting point of 217 °C.
Next, `Cc1ccccc1N` [o-toluidine]: -24 °C; `O=[N+]([O-])c1ccc(F)c([N+](=O)[O-])c1` [1-Fluoro-2,4-dinitrobenzene]: 27 °C.
The result for `c1ccc(P(CP(c2ccccc2)c2ccccc2)c2ccccc2)cc1` [Methylenebis(diphenylphosphine)] reads 121 °C; that for `N#CCc1ccc([N+](=O)[O-])cc1` [4-nitrophenylacetonitrile], 116 °C.
The compound `CCOC(=O)C1=C(C(=O)OCC)C(C)N=N1` (stereo unspecified) [diethyl 5-methyl-1H-pyrazole-3,4-dicarboxylate] showed a melting point of 99 °C.
As for `COc1cc(CO)ccc1O` [4-hydroxy-3-methoxybenzyl alcohol], the melting point was found to be 114 °C.
Next, `OC[C@@H]1[C@H](CO)[C@@H]2C=C[C@H]1C2` [5-norbornene-2-endo,3-endo-dimethanol]: 84 °C.
Next, `OCC(O)c1ccccc1` (stereo unspecified) [styrene glycol]: 68 °C; `CCOC(=O)/C=C/c1cccc(/C=C/C(=O)OCC)c1` [diethyl (2E,2'E)-3,3'-benzene-1,3-diylbisprop-2-enoate]: 54 °C; `[O-][I+3]([O-])([O-])O` [periodic acid]: 128 °C.
The compound `CC(=O)C=C(C)[O][Co]([O]C(C)=CC(C)=O)[O]/C(C)=C\C(C)=O` [Cobalt(3+) tris[(2Z)-4-oxopent-2-en-2-olate]] came in with a melting point of 212 °C.
Next, `O=C(CCl)Oc1ccc([N+](=O)[O-])cc1` [4-nitrophenyl chloroacetate]: 94 °C.
Next, `O=C(C(=O)c1ccccc1)c1ccccc1` [Benzil]: 95 °C; `OO` [Hydrogen peroxide]: -40 °C.
Next, `OB(O)c1cccc(OCc2ccccc2)c1` [3-benzyloxybenzeneboronic acid]: 123 °C.
In turn, `Oc1cccc2ccc3cccnc3c12` [10-hydroxybenzo[h]quinoline] registered a melting point of 104 °C.
The result for `O=C1CCCC1` [Cyclopentanone] reads -51 °C.
Take `CC=C(C)Br` [2-bromo-trans-2-butene]: the melting point was -115 °C.
Next, `CCOC(=O)c1cc(C(=O)OCC)c([N+](=O)[O-])cc1[N+](=O)[O-]` [diethyl 4,6-dinitrobenzene-1,3-dicarboxylate]: 124 °C; `CC1CC1` [cyclopropylmethane]: -177 °C.
Next, `COc1cccc(C=O)c1O` [2-hydroxy-3-methoxybenzaldehyde]: 41 °C; `Nc1cccc2cnccc12` [5-aminoisoquinoline]: 129 °C.
